Reference: paper PMC8026774 (Cellular and molecular neurobiology, 2020)

What was measured:
Assay in all cases: radioligand saturation binding, CHO membranes
[1] = molecular target: MOR-1 (untagged) (Mus musculus, UniProt P42866)
[2] = molecular target: MOR-TR-PK (Mus musculus, UniProt P42866, DEL387-398)
[3] = molecular target: MOR-1O (untagged) (Mus musculus, UniProt P42866)
[4] = molecular target: MOR-1O-PK (Mus musculus, UniProt P42866)
[5] = molecular target: MOR-1-PK (Mus musculus, UniProt P42866)

## O=C(N[C@@H]1CC[C@@]2(O)[C@H]3Cc4ccc(O)c5c4[C@@]2(CCN3CC2CC2)[C@H]1O5)c1cccc(I)c1 [[^125I]IBNtxA]
[1]
  Kd: 0.13 ± 0.03 nM
[2]
  Kd: 0.1 ± 0.02 nM
[3]
  Kd: 0.2 ± 0.07 nM
[4]
  Kd: 0.24 ± 0.11 nM
[5]
  Kd: 0.1 ± 0.01 nM
